Experimental data from EP3294317B1, “ENHANCED ANTIBIOTIC COMPOSITION” (Universitat Autònoma de Barcelona, priority 2015, dated 2016).

How the values were obtained:
[1] = system: Escherichia coli ATCC 9637; assay: Colistin broth microdilution MIC with potentiator compounds (Example 1); format: cell-based; conditions: E. coli ATCC 9637; MIC in the presence of 1.0% DMSO / MIC in the presence of 0.1 mM potentiator compound and 1.0% DMSO; positive = increased, negative = decreased susceptibility, 1 = no effect
[2] = system: Escherichia coli ATCC 25922; assay: as above; format: cell-based; conditions: E. coli ATCC 25922; MIC in the presence of 1.0% DMSO / MIC in the presence of 0.1 mM potentiator compound and 1.0% DMSO; positive = increased, negative = decreased susceptibility, 1 = no effect
A. baumannii 6963 [3] = assay: Colistin broth microdilution MIC with potentiator compounds, resistant clinical isolates (Example 3); format: cell-based, Acinetobacter baumannii; conditions: MIC in the presence of 1.0% DMSO / MIC in the presence of 0.1 mM compound and 1.0% DMSO, positive = increased susceptibility, 1 = no effect
Protocol: (§1) The potentiator effect of the compound of the invention and other compounds disclosed herein was tested using colistin sulfate as antibiotic and in combination with the enhancer compounds in front of resistant clinical isolates.
(§2) Tests were performed to determine the potentiator effect of the compound of the invention and other compounds disclosed herein with multidrug-resistant S. maltophilia and A. baumannii clinical strains as shown in Table 5: TABLE 5
(§3) For this experiment the potentiator compound was added to a colistin broth microdilution assay at a final concentration of 0.1mM. MICs were determined as described in the Example 1.
(§4) Colistin minimal inhibitory concentration (MIC), expressed in µg/mL, and the fold increase in bacterial susceptibility to colistin when combined with the potentiator compound (expressed as MIC in the presence of 1.0% DMSO / MIC in the presence of 0.1 mM of each potentiator compound and 1.0% DMSO) are shown in Table 6: […]

A. baumannii 6799 [4] = assay: as above; format: cell-based, Acinetobacter baumannii; conditions: MIC in the presence of 1.0% DMSO / MIC in the presence of 0.1 mM compound and 1.0% DMSO, positive = increased susceptibility, 1 = no effect
Protocol: as §1, §2, §3, §4

[5] = system: S. maltophilia ATCC 13637; assay: Broth microdilution MIC of other antibiotics with potentiator compounds (Example 2); format: cell-based, Stenotrophomonas maltophilia
Protocol: (§5) Following the procedure of Example 1, ciprofloxacin, amikacin, levofloxacin, tigecycline, imipenem and the combination trimethoprim/sulfamethoxasole (1:19) were tested. All were purchased from Sigma-Aldrich Co.
(§6) Minimal inhibitory concentration (MIC) of the antibiotic or the test combinations were determined by the broth microdilution method.
(§7) Antibiotic stock solutions were prepared according to CLSI recommendations and sterilizing by passage through 0.20 µm filters.
(§8) Antimicrobial susceptibility testing of these isolates was performed using the broth microdilution (BMD) method, according to CLSI guidelines.
(§9) The fold increase in bacterial susceptibility to antibiotics when combined with the potentiator compound (expressed as MIC in the presence of 1.0% DMSO / MIC in the presence of 0.1 mM of each potentiator compound and 1.0% DMSO) are shown in Table 4: […]

S. maltophilia 257 [6] = assay: Colistin broth microdilution MIC with potentiator compounds, resistant clinical isolates (Example 3); format: cell-based, Stenotrophomonas maltophilia; conditions: MIC in the presence of 1.0% DMSO / MIC in the presence of 0.1 mM compound and 1.0% DMSO, positive = increased susceptibility, 1 = no effect
Protocol: as §1, §2, §3, §4

S. maltophilia M30 = assay: as above; format: cell-based, Stenotrophomonas maltophilia; conditions: MIC in the presence of 1.0% DMSO / MIC in the presence of 0.1 mM compound and 1.0% DMSO, positive = increased susceptibility, 1 = no effect
Protocol: as §1, §2, §3, §4

A. baumannii ATCC 15308 = assay: Broth microdilution MIC of other antibiotics with potentiator compounds (Example 2); format: cell-based, Acinetobacter baumannii; conditions: for Fold increase in bacterial susceptibility to TMP/SMX: Trimethoprim:sulfamethoxazole 1:19, MIC in 1.0% DMSO / MIC with 0.1 mM potentiator compound and 1.0% DMSO
Protocol: as §5, §6, §7, §8, §9

[7] = system: Pseudomonas aeruginosa PAO1; assay: Colistin broth microdilution MIC with potentiator compounds (Example 1); format: cell-based; conditions: P. aeruginosa PAO1; MIC in the presence of 1.0% DMSO / MIC in the presence of 0.1 mM potentiator compound and 1.0% DMSO; positive = increased, negative = decreased susceptibility, 1 = no effect
[8] = system: Acinetobacter baumannii ATCC 15308; assay: as above; format: cell-based; conditions: A. baumannii ATCC 15308; MIC in the presence of 1.0% DMSO / MIC in the presence of 0.1 mM potentiator compound and 1.0% DMSO; positive = increased, negative = decreased susceptibility, 1 = no effect
[9] = system: Stenotrophomonas maltophilia ATCC 13637; assay: as above; format: cell-based; conditions: S. maltophilia ATCC 13637; MIC in the presence of 1.0% DMSO / MIC in the presence of 0.1 mM potentiator compound and 1.0% DMSO; positive = increased, negative = decreased susceptibility, 1 = no effect
[10] = system: Salmonella enterica subsp. enterica ATCC 14028; assay: as above; format: cell-based; conditions: S. enterica ATCC 14028; MIC in the presence of 1.0% DMSO / MIC in the presence of 0.1 mM potentiator compound and 1.0% DMSO; positive = increased, negative = decreased susceptibility, 1 = no effect
P. aeruginosa ATCC 27853 = assay: Broth microdilution MIC of other antibiotics with potentiator compounds (Example 2); format: cell-based, Pseudomonas aeruginosa; conditions: for Fold increase in bacterial susceptibility to antibiotic indicated: any of ciprofloxacin, amikacin, levofloxacin, tigecycline, imipenem, TMP/SMX (1:19), 0.1 mM potentiator, 1.0% DMSO, 'none' = no antibiotic potentiated
Protocol: as §5, §6, §7, §8, §9

[11] = system: Pseudomonas aeruginosa ATCC 27853; assay: Colistin broth microdilution MIC with potentiator compounds (Example 1); format: cell-based; conditions: P. aeruginosa ATCC 27853; MIC in the presence of 1.0% DMSO / MIC in the presence of 0.1 mM potentiator compound and 1.0% DMSO; positive = increased, negative = decreased susceptibility, 1 = no effect
[12] = system: Enterobacter aerogenes ATCC 13048; assay: as above; format: cell-based; conditions: E. aerogenes ATCC 13048; MIC in the presence of 1.0% DMSO / MIC in the presence of 0.1 mM potentiator compound and 1.0% DMSO; positive = increased, negative = decreased susceptibility, 1 = no effect
A. baumannii 6963 [13] = assay: Broth microdilution MIC of other antibiotics with potentiator compounds, clinical isolates (Example 4); format: cell-based, Acinetobacter baumannii; conditions: any of ciprofloxacin, amikacin, levofloxacin, imipenem, TMP/SMX (1:19), 0.1 mM compound, 1.0% DMSO, 'none' = no antibiotic potentiated
Protocol: (§10) Following the procedure of Example 3, ciprofloxacin, amikacin, levofloxacin, imipenem and the combination trimethoprim/sulfamethoxasole (1:19) were tested. All were purchased from Sigma-Aldrich Co.
as §6, §7, §8
(§11) The fold increase in bacterial susceptibility to antibiotics when combined with the potentiator compound (expressed as MIC in the presence of 1.0% DMSO / MIC in the presence of 0.1 mM of each potentiator compound and 1.0% DMSO) are shown in Table 7: […]

A. baumannii 6799 [14] = assay: as above; format: cell-based, Acinetobacter baumannii; conditions: for Fold increase in bacterial susceptibility to TMP/SMX: Trimethoprim:sulfamethoxazole 1:19, MIC in 1.0% DMSO / MIC with 0.1 mM compound and 1.0% DMSO
Protocol: as §10, §6, §7, §8, §11

S. maltophilia 257 [15] = assay: as above; format: cell-based, Stenotrophomonas maltophilia; conditions: any of ciprofloxacin, amikacin, levofloxacin, imipenem, TMP/SMX (1:19), 0.1 mM compound, 1.0% DMSO, 'none' = no antibiotic potentiated
Protocol: as §10, §6, §7, §8, §11

[16] = MIC in 1.0% DMSO / MIC with 0.1 mM potentiator compound and 1.0% DMSO
[17] = any of ciprofloxacin, amikacin, levofloxacin, tigecycline, imipenem, TMP/SMX (1:19), 0.1 mM potentiator, 1.0% DMSO, 'none' = no antibiotic potentiated

Compound	Fold increase in bacterial susceptibility to colistin [1]	Fold increase in bacterial susceptibility to colistin [2] [fold]	Fold increase in bacterial susceptibility to colistin (A. baumannii 6963 [3])	Fold increase in bacterial susceptibility to colistin (A. baumannii 6799 [4])	Fold increase in bacterial susceptibility to Tigecycline [5, 16]	Fold increase in bacterial susceptibility to colistin (S. maltophilia 257 [6])	Fold increase in bacterial susceptibility to colistin (S. maltophilia M30)	Fold increase in bacterial susceptibility to colistin [7]	Fold increase in bacterial susceptibility to colistin [8]	Fold increase in bacterial susceptibility to colistin [9]	Fold increase in bacterial susceptibility to colistin [10]	Fold increase in bacterial susceptibility to antibiotic indicated (P. aeruginosa ATCC 27853)	Fold increase in bacterial susceptibility to colistin [11] [fold]	Fold increase in bacterial susceptibility to colistin [12] [fold]	Fold increase in bacterial susceptibility to antibiotic indicated (A. baumannii 6963 [13])	Fold increase in bacterial susceptibility to TMP/SMX (A. baumannii 6799 [14])	Fold increase in bacterial susceptibility to TMP/SMX (A. baumannii ATCC 15308)	Fold increase in bacterial susceptibility to antibiotic indicated (S. maltophilia 257 [15])	further results
N#Cc1cccc(CN2CCC(c3cnn(Cc4cccc(C#N)c4)c3)CC2)c1 [IID, 3-[[4-[1-[(3-cyanophenyl)methyl]pyrazol-4-yl]piperidin-1-yl]methyl]-benzonitrile]	1 fold	1	+4 fold	1 fold	Ciprofloxacin (2) Tigecycline (2) fold	1 fold	+16 fold	1 fold	+4 fold	+8 fold	1 fold	none	1	1	–	–	–	–	Fold increase in bacterial susceptibility to Ciprofloxacin [5, 16]: Ciprofloxacin (2) Tigecycline (2) fold; Fold increase in bacterial susceptibility to antibiotic indicated (A. baumannii ATCC 15308; [17]): none
O=C(CCCN1C(=O)c2cccc3cccc(c23)C1=O)N1CCN(c2ccccc2O)CC1 [IIA, 2-[4-[4-(2-hydroxyphenyl)piperazin-1-yl]-4-oxobutyl]benzo[de]isoquinoline-1,3-dione]	+2 fold	1	+2 fold	+2 fold	Tigecycline (2) fold	1 fold	+8 fold	1 fold	+4 fold	+4 fold	+2 fold	–	-2	1	none	Amikacin (2) TMP/SMX (2) fold	Amikacin (2) TMP/SMX (2) fold	none	Fold increase in bacterial susceptibility to Amikacin (A. baumannii 6799 [14]; MIC in 1.0% DMSO / MIC with 0.1 mM compound and 1.0% DMSO): Amikacin (2) TMP/SMX (2) fold; Fold increase in bacterial susceptibility to Amikacin (A. baumannii ATCC 15308; [16]): Amikacin (2) TMP/SMX (2) fold; Fold increase in bacterial susceptibility to Imipenem (P. aeruginosa ATCC 27853; [16]): Imipenem (2) fold
O=C(NCC(=O)N1CCN(c2cccc(Cl)c2)CC1)c1cccc(NC(=O)c2cccnc2)c1 [IIC, N-[3-[[2-[4-(3-chlorophenyl)piperazin-1-yl]-2-oxoethyl]carbamoyl]-phenyl]pyridine-3-carboxamide]	1 fold	1	+2 fold	+2 fold	–	1 fold	+16 fold	1 fold	+4 fold	+4 fold	1 fold	–	1	1	–	–	–	–	–
CCOC(=O)c1cc2cc(C(=O)N3CCN(Cc4cccc(C(F)(F)F)c4)CC3)ccc2[nH]1 [IIB, ethyl 5-[4-[[3-(trifluoromethyl)phenyl]methyl]piperazine-1-carbonyl]-1 H-indole-2-carboxylate]	+2 fold	1	+2 fold	+2 fold	–	+4 fold	+16 fold	+2 fold	>8 fold	+4 fold	+4 fold	none	1	1	none	TMP/SMX (2) fold	TMP/SMX (2) fold	none	Fold increase in bacterial susceptibility to antibiotic indicated [5, 17]: none
